This is an account of results in article PMC4510386, “Transglycosylation Activity of Glycosynthase Mutants of Endo-β-N-Acetylglucosaminidase from Coprinopsis cinerea” (PLoS ONE, 2015).

Broadly, the Km is the substrate concentration at which the rate is half of its maximum.

The assay has as its target T1, Endo-CC1 (Coprinopsis cinerea, UniProt A8P7P2).
T1 construct: gene CC1G_11102; full-length cDNA, 787 residues, His6-tagged, pET23b NdeI/XhoI, E. coli BL21-CodonPlus (DE3), HisTrap purified
The assay is described as follows: HPLC of Dns-Asn-GlcNAc release, Lineweaver-Burk. The assay is classed as biochemical. The conditions noted are these: 100 mM phosphate pH 7.5, 37 C; hydrolysis.

T1 sequence (A8P7P2 entry or part of it): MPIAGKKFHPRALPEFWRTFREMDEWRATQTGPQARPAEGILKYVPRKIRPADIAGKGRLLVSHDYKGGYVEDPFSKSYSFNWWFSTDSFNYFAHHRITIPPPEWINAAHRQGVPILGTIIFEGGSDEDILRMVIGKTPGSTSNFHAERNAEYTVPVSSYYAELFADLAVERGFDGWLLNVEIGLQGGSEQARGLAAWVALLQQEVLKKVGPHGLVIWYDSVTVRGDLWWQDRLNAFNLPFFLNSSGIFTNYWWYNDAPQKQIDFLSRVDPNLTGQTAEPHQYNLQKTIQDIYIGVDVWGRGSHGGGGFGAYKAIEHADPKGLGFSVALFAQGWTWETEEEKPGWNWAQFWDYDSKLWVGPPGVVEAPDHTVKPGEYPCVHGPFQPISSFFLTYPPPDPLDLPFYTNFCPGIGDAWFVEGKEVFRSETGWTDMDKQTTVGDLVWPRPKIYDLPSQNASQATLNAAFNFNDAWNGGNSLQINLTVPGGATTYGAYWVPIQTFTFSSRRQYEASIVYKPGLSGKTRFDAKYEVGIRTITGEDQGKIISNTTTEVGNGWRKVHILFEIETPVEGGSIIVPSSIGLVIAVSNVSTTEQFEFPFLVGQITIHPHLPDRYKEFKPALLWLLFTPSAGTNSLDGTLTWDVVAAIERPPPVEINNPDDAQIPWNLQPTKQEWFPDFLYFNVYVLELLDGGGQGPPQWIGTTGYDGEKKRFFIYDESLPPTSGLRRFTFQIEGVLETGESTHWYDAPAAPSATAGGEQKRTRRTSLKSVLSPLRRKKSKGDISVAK

For the substance Dns-SG, the Km is 1900 µM.
